Assay results published in the supplement of paper PMC10307832.

Tests used:
Experiment in all cases: relative viability (nuclei count vs DMSO), 5 days (fraction); higher = more cells survive
Ponatinib + Decitabine = compound: Cc1ccc(C(=O)Nc2ccc(CN3CCN(C)CC3)c(C(F)(F)F)c2)cc1C#Cc1cnc2cccnn12 [Ponatinib] + Nc1ncn([C@H]2C[C@H](O)[C@@H](CO)O2)c(=O)n1 [Decitabine] (partner 2 µM)
How it was run: (§1)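 Dosing by pin tool came one day after lung cancer cell lines were seeded in 1536-well plates, using either one drug or a fixed anchor-drug dose plus five library-drug doses (not always all listed) in √10 steps. After 5 days, nuclei were counted on 4× images. Relative viability is treated-well nuclei count divided by vehicle-well nuclei count, and values are medians of duplicate plates.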

Pazopanib + Navitoclax = compound: Cc1ccc(Nc2nccc(N(C)c3ccc4c(C)n(C)nc4c3)n2)cc1S(N)(=O)=O [Pazopanib] + CC1(C)CCC(c2ccc(Cl)cc2)=C(CN2CCN(c3ccc(C(=O)NS(=O)(=O)c4ccc(N[C@H](CCN5CCOCC5)CSc5ccccc5)c(S(=O)(=O)C(F)(F)F)c4)cc3)CC2)C1 [Navitoclax] (partner 0.5 µM)
How it was run: as §1

Ponatinib + Trametinib = compound: Cc1ccc(C(=O)Nc2ccc(CN3CCN(C)CC3)c(C(F)(F)F)c2)cc1C#Cc1cnc2cccnn12 [Ponatinib] + CC(=O)Nc1cccc(-n2c(=O)n(C3CC3)c(=O)c3c(Nc4ccc(I)cc4F)n(C)c(=O)c(C)c32)c1 [Trametinib] (partner 0.02 µM)
How it was run: as §1

Ponatinib + Phenformin = compound: Cc1ccc(C(=O)Nc2ccc(CN3CCN(C)CC3)c(C(F)(F)F)c2)cc1C#Cc1cnc2cccnn12 [Ponatinib] + N=C(N)NC(=N)NCCc1ccccc1 [Phenformin] (partner 250 µM)
How it was run: as §1

Row | Cell Line | relative viability (Ponatinib + Decitabine; first compound 0.002 µM) | relative viability (Ponatinib + Decitabine; first compound 0.006325 µM) | relative viability (Ponatinib + Decitabine; first compound 0.06325 µM) | relative viability (Ponatinib + Decitabine; first compound 0.2 µM) | relative viability (Pazopanib + Navitoclax; first compound 0.01 µM) | relative viability (Pazopanib + Navitoclax; first compound 0.03162 µM) | relative viability (Pazopanib + Navitoclax; first compound 0.1 µM) | relative viability (Pazopanib + Navitoclax; first compound 0.3162 µM) | relative viability (Pazopanib + Navitoclax; first compound 1 µM) | relative viability (Ponatinib + Trametinib; first compound 0.002 µM) | relative viability (Ponatinib + Trametinib; first compound 0.006325 µM) | relative viability (Ponatinib + Trametinib; first compound 0.06325 µM) | relative viability (Ponatinib + Trametinib; first compound 0.2 µM) | relative viability (Ponatinib + Phenformin; first compound 0.002 µM) | relative viability (Ponatinib + Phenformin; first compound 0.006325 µM) | relative viability (Ponatinib + Phenformin; first compound 0.06325 µM) | relative viability (Ponatinib + Phenformin; first compound 0.2 µM)
1 | NCI-H647 | 0.319 | 0.369 | 0.429 | 0.407 | 1.14 | 1.08 | 1.21 | 1.17 | 1.16 | 0.399 | 0.5 | 0.458 | 0.296 | 0.413 | 0.626 | 0.699 | 0.42
2 | H3255 | 0.566 | 0.512 | 0.717 | 0.552 | 0.488 | 0.523 | 0.548 | 0.536 | 0.572 | 0.62 | 0.655 | 0.607 | 0.554 | 0.366 | 0.366 | 0.393 | 0.329
3 | NCI-H2023 | 0.24 | 0.196 | 0.244 | 0.21 | 0.972 | 1 | 0.98 | 1.01 | 1.01 | 0.555 | 0.625 | 0.64 | 0.523 | 0.397 | 0.416 | 0.425 | 0.315
4 | NCI-H23 | 0.286 | 0.313 | 0.332 | 0.297 | 0.899 | 0.843 | 1.16 | 1.02 | 1.06 | 0.376 | 0.415 | 0.364 | 0.348 | 0.759 | 0.756 | 0.815 | 0.593
5 | NCI-H2170 | 0.508 | 0.481 | 0.467 | 0.431 | 0.519 | 0.586 | 0.752 | 0.542 | 0.631 | 0.865 | 0.962 | 0.899 | 0.867 | 0.391 | 0.365 | 0.432 | 0.419
6 | NCI-H1944 | 0.422 | 0.433 | 0.482 | 0.43 | 0.942 | 0.997 | 1.09 | 1.05 | 1.08 | 0.426 | 0.465 | 0.49 | 0.409 | 0.204 | 0.202 | 0.209 | 0.186
7 | NCI-H596 | 0.925 | 0.999 | 0.984 | 1 | 0.843 | 0.997 | 0.978 | 0.924 | 0.837 | 0.783 | 0.812 | 0.825 | 0.642 | 0.621 | 0.82 | 0.7 | 0.568
8 | NCI-H520 | 0.426 | 0.483 | 0.45 | 0.411 |  | 1.18 | 0.955 | 1.05 | 0.98 | 0.597 | 0.623 | 0.435 | 0.285 | 0.392 | 0.552 | 0.291 | 0.18
9 | EKVX | 0.329 | 0.366 | 0.378 | 0.357 | 0.834 | 0.926 | 0.97 | 0.921 | 1.02 | 0.328 | 0.338 | 0.424 | 0.362 | 0.231 | 0.25 | 0.234 | 0.249
